Key:
[1] = test system: developing embryo; experiment: Toxicity of drugs for the developing embryo; type: in vivo, zebrafish
Description: Drugs from BIOMOL® ICCB Known Bioactives Library Cat #2840 were used for drug tests. Drugs were diluted in standard fish water from the 5-mg/ml DMSO stock solutions. The injected embryos were sorted at 8 hours post fertilization (hpf) and the normally developing were selected for drug treatment. Ten to fifteen embryos per well were plated into 24-well microtiter plate and overlayed with 1.5 ml drug solution at 10 hpf. Embryos were incubated in the dark at 28° C. The results were observed every day until 5 days post fertilization (dpf).
To evaluate feasibility of the model for drug discovery, a mini-screening was performed using selected compounds from BIOMOL® ICCB Known Bioactives Library. The embryos injected with EGFP-zK-rasB(V12) construct were treated with various drugs in 24-well microtiter plates. The drugs were administered into the standard fish water starting at 10 hpf. Concentration of drugs was proposed based on data from a preliminary screening for developmental toxicity.

[2] = test system: EGFP-positive cells of embryos injected with EGFP-zK-rasB(V12) construct; experiment: Drug tests on zebrafish embryos injected with EGFP-zK-rasB(V12) construct (neoplastic transformation of EGFP-positive cells); type: in vivo; details: for specific effect on the EGFP-positive cells: 1 μg/ml; for effect on the transformed cells: 3 μg/ml; for Effects: preliminary screen
Description: 5-10 pg of plasmid DNA were injected into zebrafish embryos at the 1-2-cell stage. The actual concentration of DNA was empirically adjusted to produce 50% embryo survival rate.
A SMZ1500 Stereoscopic Zoom Microscope (Nikon) equipped with the epi-fluorescence attachment and DXM1200F digital camera (Nikon) with original software was used for image analysis.

[3] = test system: E-cadherin-mediated cell adhesion system; details: by restoring E-cadherin-mediated cell adhesion system; Nam et al., 2002; cited from earlier work
[4] = 3 μg/ml in fish water from 10 hpf
[5] = 10 μg/ml in fish water from 10 hpf

In the case of `Cc1ccc(-c2nn(C(C)(C)C)c3ncnc(N)c23)cc1` [PP1], the “toxicity for developing embryo” value ([1]; 1 μg/ml) is reported as “tolerable”, the “toxicity for developing embryo” value ([1]; 3 μg/ml) is reported as “toxic” and the “specific effect on the EGFP-positive cells” value [2] is reported as “considerably reduced”. For the same compound, the “effect on the transformed cells” value [2] was “maintained flat shape while continued to grow” and the Effects [2, 4] was “Keeps cells flat and attached”.

With `CC[C@H](C)[C@@H](CO[C@@H](Cc1ccccc1)C(=O)N[C@@H](CCS(C)(=O)=O)C(=O)OC(C)C)NC[C@@H](N)CS` [L-744,832] the Effects [2, 5] was “NO”.

For `CCCC[C@@H](C)/C=C(C)/C=C(\C)C(=O)NC1=C[C@@](O)(/C=C/C=C/C=C/C(=O)NC2=C(O)CCC2=O)[C@@H]2O[C@@H]2C1=O` [Manumycin A], the Effects [2, 4] was “NO”.

For `CC[C@H](C)C(=O)O[C@H]1C[C@@H](C)C=C2C=C[C@H](C)[C@H](CC[C@@H]3C[C@@H](O)CC(=O)O3)[C@H]21` [Lovastatin], the Effects ([2]; 0.003 μg/ml in fish water from 10 hpf) was “Cytotoxic, non-specific effects”.

For `COc1cccc(-c2cc(=O)c3ccccc3o2)c1N` [PD98059], the “concentration at which toxic effects on development become serious” value ([1]; zebrafish, in vivo) was 10 ng/mL, the “growth of the EGFP-positive cells” value ([2]; 3 ng/ml) was “strongly impairs growth” and the “shape and attachment of EGFP-positive cells” value ([2]; 3 ng/ml, by 72 hpf) was “smaller, maintain flat shape and remain attached to the embryo”. The Effects [2, 4] was “preserves the epithelial”.

With `O=C1Nc2ccc(I)cc2/C1=C/c1cc(Br)c(O)c(Br)c1` [GW-5074] the Effects ([2]; 1 μg/ml in fish water from 10 hpf) was “Cytotoxic, non-specific effects”.

For `Cc1ccc(NC(=O)c2cccc(N(C)C)c2)cc1NC(=O)c1ccc(O)cc1` [ZM336372], the Effects [2, 5] was “NO”.

For `O=c1cc(N2CCOCC2)oc2c(-c3ccccc3)cccc12` [LY294002], the Effects [2, 4] was “NO”.

For `CC(C)(C)n1nc(-c2ccc(Cl)cc2)c2c(N)ncnc21` [PP2], the “toxicity for developing embryo” value ([1]; 1 μg/ml) is listed as “tolerable”, the “toxicity for developing embryo” value ([1]; 3 μg/ml) is listed as “toxic” and the “metastatic spread of cancer” value [3] is listed as “reduced metastatic spread of cancer”. The “specific effect on the EGFP-positive cells” value [2] was “considerably reduced”, the “effect on the transformed cells” value [2] was “maintained flat shape while continued to grow” and the Effects [2, 4] was “Keeps cells flat and attached”.

Reference: patent publication US8513484B2, “Fish cancer model” (Temasek Life Sciences Laboratory Limited, priority 2005, dated 2013)
